This note sets out measurements from patent US8802674B2, “Aminopyrimidine derivatives as LRRK2 modulators” (Genentech, Inc., priority 2011, dated 2014).

In general, Ki refers to a measure of affinity in units of concentration, obtained from inhibition or displacement.

Sequence of LRRK2 (Q5S007 970-2527 G2019S limits assumed): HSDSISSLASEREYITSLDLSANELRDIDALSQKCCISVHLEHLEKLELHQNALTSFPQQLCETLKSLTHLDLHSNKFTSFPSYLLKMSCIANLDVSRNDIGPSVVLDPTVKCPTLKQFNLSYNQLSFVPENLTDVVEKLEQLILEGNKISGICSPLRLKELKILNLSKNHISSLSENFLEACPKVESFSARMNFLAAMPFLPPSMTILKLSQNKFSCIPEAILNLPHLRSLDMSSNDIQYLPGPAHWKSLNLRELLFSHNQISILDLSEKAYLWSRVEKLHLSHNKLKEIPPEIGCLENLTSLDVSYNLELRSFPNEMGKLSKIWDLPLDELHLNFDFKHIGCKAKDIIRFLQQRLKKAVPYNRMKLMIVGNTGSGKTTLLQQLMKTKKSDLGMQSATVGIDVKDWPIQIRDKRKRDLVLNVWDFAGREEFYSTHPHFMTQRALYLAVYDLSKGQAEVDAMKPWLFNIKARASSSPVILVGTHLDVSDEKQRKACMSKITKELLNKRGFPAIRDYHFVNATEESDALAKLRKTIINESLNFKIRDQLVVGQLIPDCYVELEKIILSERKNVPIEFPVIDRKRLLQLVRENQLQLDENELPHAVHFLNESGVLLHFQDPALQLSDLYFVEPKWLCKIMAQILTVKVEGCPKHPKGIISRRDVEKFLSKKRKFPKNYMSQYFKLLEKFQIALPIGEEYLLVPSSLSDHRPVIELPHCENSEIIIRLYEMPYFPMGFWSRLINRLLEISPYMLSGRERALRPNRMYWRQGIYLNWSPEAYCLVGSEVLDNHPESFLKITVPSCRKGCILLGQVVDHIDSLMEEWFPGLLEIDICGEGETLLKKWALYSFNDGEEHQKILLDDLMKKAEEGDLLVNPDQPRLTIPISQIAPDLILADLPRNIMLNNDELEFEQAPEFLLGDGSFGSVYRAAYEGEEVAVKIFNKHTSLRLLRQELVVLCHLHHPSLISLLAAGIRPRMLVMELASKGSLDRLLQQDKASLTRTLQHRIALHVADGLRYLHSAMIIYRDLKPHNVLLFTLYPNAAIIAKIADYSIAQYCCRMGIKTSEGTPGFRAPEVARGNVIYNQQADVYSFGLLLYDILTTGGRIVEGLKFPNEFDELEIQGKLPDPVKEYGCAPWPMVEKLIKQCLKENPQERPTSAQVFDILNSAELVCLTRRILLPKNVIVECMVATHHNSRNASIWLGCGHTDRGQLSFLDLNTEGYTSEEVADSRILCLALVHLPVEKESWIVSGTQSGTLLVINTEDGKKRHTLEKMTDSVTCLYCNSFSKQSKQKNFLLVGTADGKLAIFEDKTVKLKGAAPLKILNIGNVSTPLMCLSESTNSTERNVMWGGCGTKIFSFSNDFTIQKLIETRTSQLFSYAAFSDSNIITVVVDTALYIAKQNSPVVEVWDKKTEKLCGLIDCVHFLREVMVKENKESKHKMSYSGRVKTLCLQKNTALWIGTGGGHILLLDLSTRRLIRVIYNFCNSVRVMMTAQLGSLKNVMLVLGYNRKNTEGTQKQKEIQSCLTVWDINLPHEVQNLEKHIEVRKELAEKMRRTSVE

The first experiment has as its target LRRK2 (Homo sapiens (Human), UniProt Q5S007, G2019S). The experiment in a line: In Vitro LRRK2 LabChip Assay. It is filed as biochemical. To be noted: Table 4. The procedure, abridged: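 Potency (Ki in μM, IC50 or % inhibition) derived from capillary-electrophoresis separation of phospho- and unphosphorylated fluorescent peptide, with Ki fitted by a tight-binding model.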
On to `CNc1nc(Nc2cc(OC)c(C(=O)N3CCC(O)C3)cc2Cl)ncc1Cl` (stereo not shown) [Example 152, [5-Chloro-4-(5-chloro-4-methylamino-pyrimidin-2-ylamino)-2-methoxy-phenyl]-(3-hydroxy-pyrrolidin-1-yl)-methanone], for which the affinity corresponds to a Ki of 8.6 nM.

`[2H]C1([2H])OCCN(C(=O)c2ccc(Nc3ncc(Br)c(OC)n3)c(OC)c2)[C@@H]1C` [Example 107, [4-(5-Bromo-4-methoxy-pyrimidin-2-ylamino)-3-methoxy-phenyl]-((R)-2,2-di-deutero-3-methyl-morpholin-4-yl)-methanone] had a Ki of 2 nM.

As for `CNc1nc(Nc2ccc(C(=O)N3CCOCC3)cc2OC)ncc1C(F)(F)F` [Example 50, [3-Methoxy-4-(4-methylamino-5-trifluoromethyl-pyrimidin-2-ylamino)-phenyl]-morpholin-4-yl-methanone], affinity was put at a Ki of 2.7 nM.

In the case of `CNc1nc(Nc2cc(OC)c(C(=O)N3CCCOCC3)cc2Cl)ncc1Cl` [Example 165, [5-Chloro-4-(5-chloro-4-methylamino-pyrimidin-2-ylamino)-2-methoxy-phenyl]-[1,4]oxazepan-4-yl-methanone], the inhibition constant Ki came out at 5.7 nM.

The experiment is the same for the next values; noted with them: Table 6.
The compound `CNc1nc(Nc2ccc(C(=O)N3CCN(CC(F)(F)F)CC3)cc2OC)ncc1C(F)(F)F` [Example 279, [3-Methoxy-4-(4-methylamino-5-trifluoromethyl-pyrimidin-2-ylamino)-phenyl]-[4-(2,2,2-trifluoro-ethyl)-piperazin-1-yl]-methanone] gave a Ki of 2 nM.

For `CCN(CC)C(=O)c1ccc(Nc2ncc(C(F)(F)F)c(NC)n2)c(OC)c1` [Example 275, N,N-Diethyl-3-methoxy-4-(4-methylamino-5-trifluoromethyl-pyrimidin-2-ylamino)-benzamide], the affinity corresponds to a Ki of 3.3 nM.

The compound `CNc1nc(Nc2ccc(C(=O)NCCOC)cc2OC)ncc1C(F)(F)F` [Example 281, 3-Methoxy-N-(2-methoxy-ethyl)-4-(4-methylamino-5-trifluoromethyl-pyrimidin-2-ylamino)-benzamide] gave a Ki of 2.3 nM.
